Measured values taken from EP4414363A1, “INDOLYLACETIC DERIVATIVES FOR USE IN THE TREATMENT OF NEURODEGENERATIVE DISEASES” (Miuli Pharma S.r.l., priority 2023, dated 2024).

What was measured:
iNOS = assay: Western blot of LPS-induced iNOS expression in microglia cells; format: cell-based, murine; settings: BV2 microglial cells, LPS 100 ng/mL, compound 100nM, 24h
Description: (§1) Human neuroblastoma SH-SY5Y cells (Cell bank Line Collection ICLC) and immortalized murine microglial BV-2 cell line were grown as monolayers in polystyrene dishes (12 or 6 wells plate) in Dulbecco's modified Eagle's medium (DMEM) with 10% (v/v) fetal bovine serum (FBS), L glutamine (2 mM), 1% penicillin (50 IU/ml) and streptomycin (50 µg/ml). Cells were grown in a humidified atmosphere containing 95% air and 5% CO2, and the medium was changed every two days. All experiments were conducted in cultures containing cells between the 4th and 8th passages.
(§2) SH-SY5Y and BV-2 cells were plated with a confluence of 65.000 cell/mL. After 24 hours of cell seeding, medium was changed for 6h starvation in a medium containing 0% FBS. […]
(§3) Cells were exposed to compounds or vehicle and, after 24 hours, have been analyzed for Western Blotting experiments or MTT assay.
(§4) Western blot analysis was performed as previously described. Protein samples (50 µg) were analyzed on 8% subjected to SDS-polyacrylamide gel electrophoresis (SDS-PAGE) and electrotransferred onto Hybond ECL nitrocellulose paper (Amersham, Milan, Italy). […]
(§5) Immunoreactive bands were detected using ECL (Amersham). The optical density of the bands (normalized for β-actin) was determined by Chemi-Doc Imaging System (Bio-Rad, Segrate, Italy).

[1] = from reference [15]; cited from earlier work
SOD1^G93A mice [2] = assay: Paralysis onset in ALS mice; format: in vivo; settings: daily i.p., dose group not stated, vehicle 33.69 ± 1.31 days
Description: (§6) B6SJL-TgN SOD1/G93A(+)1Gur mice expressing high copy number of mutant human SOD1 with a Gly93Ala substitution [SOD1^G93A] and B6SJL-TgN (SOD1)2Gur mice expressing wild-type human SOD1 (WT) were obtained from Jackson Laboratories (Bar Harbor, ME, USA). Transgenic animals have been crossed with background-matched B6SJL wild-type female and selective breeding maintained each transgene in the […] state. All transgenic mice were identified analyzing extracts from tail tips by staining for SOD1 as previously described.
(§7) Overall, 24 male and female mice housed under diurnal lighting conditions (12 h darkness/light) were used. The number of female and male mice was balanced among all the experimental groups.
(§8) The newly synthesized compound III, dissolved in distilled water, was intraperitoneally administered daily at a dose of […], beginning at 2 months of age until 4,5 months of age.
(§9) Motor coordination and balance was assessed using a five-station mouse rotarod apparatus (Ugo Basile; Milan, Italy) as previously described. In each station, the rod was 6 cm in length and 3 cm in diameter. […] Mice had three trials on the rod, and the latencies to fall were measured once a week and then averaged. […] Body weight was measured immediately before each session of behavioral tests. […]

[3] = Body weight during prolonged treatment; format: in vivo, mice
Description: as §6, §7, §8, §9

TNF-α = assay: Western blot of LPS-induced TNF-α expression in microglia cells; format: cell-based, murine; settings: BV2 microglial cells, LPS 100 ng/mL, compound 100nM, 24h
Description: as §1, §2, §3, §4, §5

SOD1^G93A mice [4] = assay: Hind limb grip test; format: in vivo
Description: as §6, §7, §8
Hind limb grip test was carried out by placing the mouse on a grid (45 cm long × 28 cm large) upside-down (30 cm above a foam pad). The test was performed once a week and the latency to fall off the grid was also measured up to a maximum of 60 s.
To investigate whether the reduced neuroinflammatory response observed in vitro through the effect on TNF-α expression was accompanied by an amelioration of the motor performance of these mice, behavioral tests were weekly performed on WT and SOD1^G93A mice, starting from the second month after birth (P60), when i.p. administration of compound III started and when the mice were asymptomatic. All animals were assigned to three experimental groups: SOD1^G93A+vehicle, SOD1 ^G93A +compound III at 1 mg/kg, and SOD1 ^G93A +compound III at 10 mg/kg, and then weighed, subjected to rotarod test, grip test and observed to detect the disease onset.

SOD1^G93A mice [5] = assay: Rotarod test (motor coordination and balance); format: in vivo
Description: as §6, §7, §8
Motor coordination and balance was assessed using a five-station mouse rotarod apparatus (Ugo Basile; Milan, Italy) as previously described. In each station, the rod was 6 cm in length and 3 cm in diameter. Mice were trained to maintain balance at increasing speed up to a constant speed of 14 rpm for three consecutive trials. The test sessions were conducted by one rotarod trial administered once a week. In this session, the speed of rotation was increased from 4 to 14 rpm over 60 s. Mice had three trials on the rod, and the latencies to fall were measured once a week and then averaged. […] Weekly evaluation of hind limb paralysis was performed. […] Body weight was measured immediately before each session of behavioral tests.
To investigate whether the reduced neuroinflammatory response observed in vitro through the effect on TNF-α expression was accompanied by an amelioration of the motor performance of these mice, behavioral tests were weekly performed on WT and SOD1^G93A mice, starting from the second month after birth (P60), when i.p. administration of compound III started and when the mice were asymptomatic. […]

SOD1^G93A mice [6] = assay: Survival of ALS mice under prolonged treatment; format: in vivo; settings: daily i.p. from 2 months of age, dose group not stated, vehicle 127.9 ± 1.65 days
Description: as §6, §7, §8
Disease end stage was defined by the inability of mice to right themselves within 20 s when placed on their sides.
Data were evaluated as means ± SEM. Statistically significant differences among means were determined by one-way ANOVA followed by Student-Newman-Keuls/Bonferroni post-hoc test for western blotting, and Behavioral test. The Kaplan-Meier plot was used to evaluate survival, grip, rotarod and paralysis onset. Student's t-test was used for two groups comparison. […]

COX2 = assay: Western blot of COX2 expression in LPS-exposed microglia cells; format: cell-based, murine; settings: BV2 microglial cells, LPS 100 ng/mL, compound 100nM, 24h
Description: as §1, §2, §3, §4, §5

Compound | iNOS induction elicited by LPS (iNOS) | gastric damage evaluated as the lengths of the lesions [1] [mm] | paralysis onset (SOD1^G93A mice [2]) [days] | body weight ([3]; SOD1^G93A mice treated for 8 weeks, vehicle group 10% reduction at 7 weeks) | body weight ([3]; WT mice, compound versus vehicle) | overexpression of TNF-α induced by LPS exposure (TNF-α) | onset of grip performance loss (50% of the animals started to lose their grip) (SOD1^G93A mice [4]; G93A mice, day after treatment, vehicle around the 35th day) [days] | grip performance (latency to fall off the grid) (SOD1^G93A mice [4]; SOD1^G93A mice, at 6 weeks of treatment, vehicle 28.8 ± 4 sec, maximum 60 s) [s] | grip performance (time remained on the grid) (SOD1^G93A mice [4]; SOD1^G93A mice, at 8 weeks of treatment) [s] | rotarod: time able to balance on the rotarod (SOD1^G93A mice [5]; SOD1^G93A mice, at 8 weeks of treatment, vehicle 3.7±1 sec, maximum 60 s) [s] | rotarod onset (50% of the animals started to fall off the rotarod) (SOD1^G93A mice [5]; SOD1^G93A mice, day of treatment, vehicle around the 30th day) [days] | rotarod performance (SOD1^G93A mice [5]; wild type mice) | average lifespan (SOD1^G93A mice [6]) [days] | COX2 expression (COX2)
COc1ccc2c(c1)c(CC(=O)O)c(C)n2C1CCN(C)CC1 [Compound II, 2-(5-methoxy-2-methyl-1-(1-methylpiperidin-4-yl)-1H-indol-3-yl)acetic acid] | prevent iNOS induction | 0 | – | – | – | – | – | – | – | – | – | – | – | –
CCOC(=O)Cc1c(C)n(C2CCN(C)CC2)c2ccc(OC)cc12 [Compound III, Ethyl 2-(5-methoxy-2-methyl-1-(1-methylpiperidin-4-yl)-1H-indol-3-yl)acetate] | – | 3 ± 0.6 | 42.47 ± 1.59 | remained stable over time | No differences were observed | prevent the overexpression of TNF-α | ~45 | 43.8 ± 4 | 20 | 21.4 ± 5 | ~45 | did not disrupt this performance | 146.2 ± 3 | not COX2
COc1ccc2c(c1)c(CC(=O)O)c(C)n2C(=O)c1ccc(Cl)cc1 [indomethacin, reference compound] | – | 50 ± 8 | – | – | – | – | – | – | – | – | – | – | – | –
